Source: patent US6710049B2, “Azole compounds as anti-fungal agents” (Ranbaxy Laboratories Limited, priority 2000, dated 2004)
≈ marks a conversion by molar mass, not a printed value.

Key:
[1] = test system: T. rubrum; assay: Activity against dermatophytes; format: cell-based; parameters: unit not given here
Description: (§1) The in-vitro evaluation of the antifungal activity of the compounds can be performed by determining the minimum inhibitory concentration (MIC) as shown in Table 1 which is the concentration of the test compound in Rosewell Park Memorial Institute (RPMI) 1640 liquid medium buffered with 3-(Morpholino)propanesulphonic acid (MOPS) to pH 7, at which there is significant inhibition of the particular fungi. In practice the National Committee for Clinical Laboratory Standard (NCCLS) M27A document for Candida and Cryptococcus and M38P for Aspergillus was used to determine the MIC against yeast and filamentous fungi with suitable modifications for dermatophytes to other filamentous fungi. Three quality control strains were included each time the MIC were determined and readings recorded only when the Quality Control results fell into the acceptable range. After MIC results had been recorded, 100 μl from each of the well showing no growth was spread over Sabouraud Dextrose Agar (SDA) to determine the minimum fungicidal concentration (MFC) as shown in Table 2.
(§2) A comparative in vitro and in vivo biologically activity data of the compound of our invention, 2-{[1R,2R]-2-(2,4-Difluorophenyl)-2-hydroxy-1-methyl-3-(1H-1,2,4-triazole-1-yl)propyl}-4-[(2′,2′,3′,3′-tetrafluoropropoxyphenyl)-3-(2H,4H)-1,2,4-thiotriazolone (Compound No. 3) with 2-[(1R,2R)-2-(2,4-difluorophenyl)-2-hydroxy-1-methyl-3-(1H-1,2,4-triazol-1-yl)propyl]-4-(2′,2′,3′,3′-tetraflouropropoxyphenyl)-3(2H,4H)-1,2,4-triazolone (TAK 187) and standard antifungal pharmaceuticals is given below: […]

[2] = test system: T. mentagrophyte; assay: Activity against dermatophytes; format: cell-based; parameters: unit not given here
Description: as §1, §2

[3] = serum drug concentration after several days of treatment 25 to 100 times above the MIC for C. neoformans; cited from earlier work
[4] = test system: Aspergillus fumigatous; assay: In vivo anti-fungal activity, ED50 in systemically infected mice; parameters: species or system Swiss albino mice; settings: mice infected i.v. with Aspergillus fumigatous, dosing for five days
Method: The in-vivo evaluation of the compound can be carried out at a series of dose levels by oral or I. V. injection to mice which are inoculated I.V. with the minimum lethal dose of Candida albicans, Cryptococcus neoformans or Aspergillus fumigatus by the tail vein. Activity is based on the survival of a treated group of mice after the death of an untreated group of mice. For Aspergillus and Cryptococcus infections, target organs were cultured after treatment to document the number of mice cured of the infection for further assessment of activity.
Method: Briefly, Swiss albino mice weighing 20±2 G were injected intravenously (tail vein) with sufficient fungal cells to kill 100% of the untreated animals for Aspergillus fumigatous strain used. In all cases each group comprised of six mice. Five does levels, utilizing doubling dilution range, were employed per determination ranging from 25 to 1.56 mg/kg BW. Dosing was carried out for five days starting after 30 minutes of infection. […] Treated animals were monitored twice daily for 14 days post infection at which time the experiment was terminated and ED50 was calculated.

[5] = test system: Fusarium spp. isolates; assay: Comparative in vitro MIC, isolate panel; format: cell-based
Description: as §1, §2

[6] = test system: All Candida isolates; assay: Comparative in vitro MIC, isolate panel; format: cell-based
Description: as §1, §2

[7] = test system: All fungal pathogens; assay: Comparative in vitro MIC, isolate panel; format: cell-based
Description: as §1, §2

[8] = test system: Rhizoupus spp. isolates; assay: Comparative in vitro MIC, isolate panel; format: cell-based
Description: as §1, §2

[9] = test system: All Filamentous isolates; assay: Comparative in vitro MIC, isolate panel; format: cell-based
Description: as §1, §2

[10] = test system: Aspergillus fumigatus isolates; assay: Comparative in vitro MIC, isolate panel; format: cell-based
Description: as §1, §2

[11] = test system: Penicillium spp. isolates; assay: Comparative in vitro MIC, isolate panel; format: cell-based
Description: as §1, §2

[12] = test system: filamentous species of fungi; assay: Activity against filamentous fungi (statement in words); format: cell-based
Description: as §1

For `CN(C/C=C/C#CC(C)(C)C)Cc1cccc2ccccc12` [Terbina], which Activity against dermatophytes [1] is on record?
The Activity against dermatophytes was 0.016.

What about the Activity against dermatophytes [2] of the same compound?
The Activity against dermatophytes was 0.002.

For `CC[C@@H]([C@H](C)O)n1ncn(-c2ccc(N3CCN(c4ccc(OC[C@@H]5CO[C@@](Cn6cncn6)(c6ccc(F)cc6F)C5)cc4)CC3)cc2)c1=O` [SCH 56592], which “detectability in CSF” value [3] is on record?
Its value is “undetectable”.

Which results are given for `C[C@@H](n1ncn(-c2ccc(OCC(F)(F)C(F)F)cc2)c1=S)[C@](O)(Cn1cncn1)c1ccc(F)cc1F` [Compound No. 3]?
Activity against dermatophytes [1]: 0.004; Activity against dermatophytes [2]: 0.016; ED50 ([4]; Day 7 post infection): 2.33 mg/kg body weight; ED50 ([4]; Day 14 post infection): 6.25 mg/kg body weight; MIC50 [5]: 8 µg/mL (≈ 14.3 µM); MIC90 [5]: 8 µg/mL (≈ 14.3 µM); MIC G.M. [5]: 8 µg/mL (≈ 14.3 µM); MIC50 [6]: 0.5 µg/mL (≈ 0.895 µM); MIC90 [6]: 1 µg/mL (≈ 1.79 µM); MIC G.M. [6]: 0.1 µg/mL (≈ 0.179 µM); MIC50 [7]: 0.25 µg/mL (≈ 0.448 µM); MIC90 [7]: 2 µg/mL (≈ 3.58 µM); MIC G.M. [7]: 0.285 µg/mL (≈ 0.51 µM); MIC50 [8]: 0.125 µg/mL (≈ 0.224 µM); MIC90 [8]: 0.125 µg/mL (≈ 0.224 µM); MIC G.M. [8]: 0.125 µg/mL (≈ 0.224 µM); MIC50 [9]: 0.25 µg/mL (≈ 0.448 µM); MIC90 [9]: 8 µg/mL (≈ 14.3 µM); MIC G.M. [9]: 0.328 µg/mL (≈ 0.587 µM); MIC50 [10]: 0.125 µg/mL (≈ 0.224 µM); MIC90 [10]: 0.25 µg/mL (≈ 0.448 µM); MIC G.M. [10]: 0.112 µg/mL (≈ 0.201 µM); MIC50 [11]: 2 µg/mL (≈ 3.58 µM); MIC90 [11]: 8 µg/mL (≈ 14.3 µM); MIC G.M. [11]: 1.516 µg/mL (≈ 2.71 µM); activity against clinically important filamentous species of fungi [12]: unexpectedly potent activity; fungicidal character ([12]; b38: against some filamentous fungi): fungicidal
